One assay addresses thrombin (Homo sapiens, UniProt P00734). As to conditions: thrombin 1.4 nM, conjugate A 10 μM, PBS, 37° C. As to the method:
Conjugate A (21 μL, 0.24 mM) in water was added to 476.5 μL PBS. […] The mixture was incubated at 37° C. Aliquots (60 μL) at various time points were quenched with 1 μL of hirudin (10 μM) and injected into the HPLC (C-18 column, CH3CN/H2O, 0 to 70% over 12 minutes, 60° C. 0.5 mL/min, ? =280 nm).

Assay [1] has as its system 10% FVIII-deficient human plasma. Briefly: Modified activated partial thromboplastin time (aPTT*) assay. In kind it is biochemical. As to the method: For the activated Partial Thromboplastin Time (aPTT) assay peptides to be tested were first diluted in 10% FVIII-deficient human plasma. For the aPTT* the peptides were diluted in 10% FVIII-deficient human plasma that contained traces of hFIXa (anywhere between 0 and 8.8 nM hFIXa depending on the assay) in Tris/NaCl/BSA buffer. The peptides were incubated for 10 minutes at room temperature and then assayed for clotting on a Sysmex instrument that recorded the clotting time observed for each sample. The times were compared to those of a standard curve derived from standards with known FVIII activity (U/mL) in order to determine the clotting outcome.

Assay [2] has as its target T1, FIXa (Homo sapiens, UniProt P00740). The assay can be described thus: Km/Kcat of FIXa for the substrate FX (FXa generation assay). In kind it is biochemical. Also on record: purchased Haematologic Technologies. As to conditions: compound 1 3 μM, compounds 3, 4, 5 1 μM, compound C 10 μM; for Km / kcat: hFIXa 10 nM, FX 10-1000 nM, PL, CaCl2; for Δ kcat: relative to buffer (1.0). As to the method:
To determine the Km and Kcat of FIXa or FVIIa for the substrate FX, the FXa generation assay described above was used with the following modifications. […] Reactions were set up with varying concentrations of FX ranging between 400 and 0.8 nM and the rates of FXa generation were determined for each peptide at the different FX concentrations tested as described above. […] The catalytic constant (Kcat) was calculated by normalizing the Vmax to the enzyme concentration.
FIXa was used at 10 nM, and FX was used at 10-1000 nM. The assay was performed in the presence of phospholipids (PL) and calcium chloride.

The next assay concerns the target mouse FIXa (mFIXa) (Mus musculus, UniProt P16294). The assay can be described thus: FXa generation assay with mouse FIXa. As to conditions: mFIXa compared to hFIXa. In kind it is biochemical. The text has this: The data confirms that the peptide was selected for binding to hFIXa.
Assay [3] deals with FVIII deficient human plasma. Briefly: Thrombin generation assay (TGA) in FVIII-deficient plasma. It counts as biochemical. The arrangement: key to Thrombin Above Baseline (nM): 1-10 nM (1) or 1-29 nM (2) (+); 11-20 nM (1) or 30-59 nM (2) (++); 21-30 nM (1) or 60-90 nM (2) (+++); >30 nM (1) or >90 nM (2) (++++); At or about baseline (−). As to conditions: HRF FVIII-deficient plasma (1).

Assay [4] concerns the target T1, FIXa. The assay can be described thus: FXa generation assay with human FIXa. In kind it is biochemical. As to conditions: for Vmax: FXa generation assay, 10 nM hFIXa, 100 nM hFX, class symbols. The arrangement: purchased Haematologic Technologies.
For assay [5], the system named is human HemA (severe) whole blood. Briefly: ROTEM in human HemA whole blood. To be noted: 30 min pre-incubation. It counts as biochemical.
In a further assay the test system is platelets. Briefly: Platelet aggregation (aggregometer). In kind it is cell-based. As to conditions: compound 5 about 30 μM; compound 22 10 μM and 30 μM. An excerpt: ADP was used as a positive control for platelet aggregation.
Assay [6] concerns purified recombinant human coagulation factors. The assay can be described thus: Thrombin generation assay using purified hemostatic components. As to conditions: compounds 1 μM; FVIII 0.1 or 1 IU/mL (FIG. 5). It counts as biochemical.
The target of assay [7] is T2, recombinant human factor IXa (hFIXa) (Homo sapiens, UniProt P00740).
T2 construct: purchased Hematologic Technologies
Briefly: Hydrogen/deuterium exchange mass spectrometry (H/DX-MS) of hFIXa. As to conditions: hFIXa 1 μM with vs without compound 4 12 μM. It counts as binding. As to the method:
Hydrogen/deuterium exchange mass spectrometry (H/DX-MS) was utilized to study the higher-order structural analysis of recombinant human factor IXa (hFIXa) in combination with and without compound 4. The general method can be found in the following references: Engen and Smith (2001) Anal. Chem. 73, 256A-265A.; Wales and Engen (2006) Mass Spectrum. Rev. 25, 158-170.
FIXa samples were equilibrated at ambient temperature (20±1° C.) for 1 hour before labeling with deuterated buffer (reaction buffers described above). The samples were then diluted 1:15 with deuterated buffer and incubated, allowing hydrogen exchange to occur for various amounts of time (10 seconds, 1, 10, 60, and 240 minutes), before the reaction was quenched with a 1:1 dilution of 200 mM citrate, 8 M guanidinium HCl, and 0.5 M TCEP, pH 2.33. Quenched samples were then incubated for 20 seconds before being further diluted 1:1 with 0.1% formic acid and immediately injected into the LC-MS system for analysis.
Approximately 7 μg of exchanged/quenched FIXa was injected onto an immobilized pepsin column where the digestion and peptide trapping were performed for 3 minutes with a flow rate of 0.1 mL/min in 0.1% formic acid at 10° C. […] Mass spectra were acquired and peptic peptides were identified using a combination of exact mass and MS, aided by Waters Identity software (Silva J C et al., 2006. Absolute quantification of proteins by LCMSE: a virtue of parallel MS acquisition. Mol Cell Proteomics, 5(1): p144). […] The amount of deuterium in each peptide was determined by subtracting the mass of the undeuterated peptide from the mass of the deuterated peptide, incubated at various HDX time points (which were uncorrected for any back exchange). […]
The difference in deuterium exchange between FIXa and FIXa with compound 4 was determined by subtracting the mass of each FIXa peptide from the mass of the corresponding FIXa with compound 4. […] The sum of these differences, across all time points, was calculated. […]

The target of assay [8] is T3, FXa or the prothrombinase complex (Homo sapiens, UniProt P00742).
T3 construct: Under these conditions FIXa cleaves the zymogen FX into the active form FXa
The assay can be described thus: FXa / prothrombinase activity in purified thrombin generation assay. It counts as biochemical. To be noted: 1 μM; FXa 0.05 ug/mL, with or without FV. As to the method:
In another experiment it was determined whether or not the compounds of the present disclosure directly enhance the activity of FXa or the prothrombinase complex.

Where [9] appears, read: aPTT*, D-amino acid scan of compound 1, listed as WT.

Where “and” joins values, the source holds several entries; their conditions need not be identical. Identical values can stand only once.

Results on 6 substances are retold here after patent US9486507B2, “Pro-coagulant compounds and methods of use thereof” (priority 2011, dated 2016).

Regarding “Cys(Acm)-Gly-Gly-Gly-Gly-Dphe-Pip-Arg-PABC-rRAPGKLTCLASYCWLFWTGIA-NH2 (Disulfide) [conjugate A]”, the “incubation time to full cleavage by thrombin” value at thrombin is given as “about 60 min”.
For the substance KLTCLASYCWLF [Compound 1], the “Clotting time” value in [1] (aPTT* with FIXa, 5 μM) turned out to be 47.9 s; in assay [1] (aPTT* with FIXa, 10 μM) it was 43.3 s; in assay [1] (aPTT* with FIXa, 20 μM) it was 43.8 s; in [1] (setting [9]), 47.8 s; in assay [1] (aPTT*, FIXa 1 nM), 107.4 s; in assay [1] (aPTT*, FIXa 2 nM), 82.8 s. Moreover, the “Clotting time” value is 50.6 s in assay [1] (aPTT*, FIXa 4 nM) and 40.6 s in assay [1] (aPTT*, FIXa 8 nM). Moreover, the “Clotting time, sec” value is recorded as 47.3; sec in assay [1] (aPTT* with FIXa, 5 μM); 44.2; sec in [1] (aPTT* with FIXa, 10 μM); 43.5; sec in assay [1] (aPTT* with FIXa, 20 μM); 47.9; sec in assay [1] (setting [9]); 105.8; sec in assay [1] (aPTT*, FIXa 1 nM); 84.4; sec in assay [1] (aPTT*, FIXa 2 nM). Moreover, the “Clotting time, sec” value in assay [1] (aPTT*, FIXa 4 nM) was 50.9; sec; in assay [1] (aPTT*, FIXa 8 nM), 40.1; sec. Moreover, the Km on FIXa [2] stood at 0.024 ± 0.0048 µM. Further, the kcat on FIXa [2] came to 0.00024 s⁻¹. This substance yielded a Δ kcat at FIXa [2] of 160. Also, the Vmax result at mouse FIXa (mFIXa) is “greatly reduced”; at FIXa [4], “(+++) ((+++)>2)”. Besides, the “Thrombin Above Baseline (nM)” value in assay [3] (2.5 μM), in assay [3] (5 μM), in assay [3] (10 μM) and in [3] (20 μM) was “−” throughout. Besides, the “Vmax (mOD/min min)” value on FIXa [4] (PL: No) is 2.60 mOD/min min; on FIXa [4] (PL: Yes), 3.98 mOD/min min.
For “PRIRTVGPGSRSASGKLTCLASYCWLFWTGIA [Compound 21]”, the Vmax entry at FIXa [4] is given as “(++++) ((++++)>3)”. In addition, the “Clotting time, sec” value in assay [5] (2.5 μM) was 1,057 sec and 1,090 sec. Further, the “α-angle, degrees” value in assay [5] (2.5 μM) was 32 degrees; in [5] (5 μM), 32 degrees; in assay [5] (10 μM) it was 44 degrees and 52 degrees; in assay [5] (20 μM), 42 degrees and 43 degrees. Also, the “Clotting time” value in [5] (5 μM) is 930 s; in [5] (10 μM), 748 s and 703 s; in assay [5] (20 μM), 952 s and 625 s.
On to “PRIRTVGPGSRSASGKSTCLASYCWLFWTGIA [Compound 22]”, for which the “induction of platelet aggregation” value in the assay with platelets is reported as “did also not induce platelet aggregation”.
For the substance RRAPGKLTCLASYCWLFWTGIA [Compound 4], the thrombin generation result in [6] was “induce thrombin generation”. In assay [7], the “FIXa peptide with most important significant difference in H/D exchange” value is “heavy chain peptide 177-185”, the “difference index DI(1)” value is 2 and the “difference index DI(2)” value came out at 0. For the same substance, the “catalytic activity of FXa or the prothrombinase complex” value in assay [8] is listed as “did not substantially increase the catalytic activity of FXa or the prothrombinase complex”. For the same substance, on FIXa [2], the Michaelis constant (Km) is 0.011 ± 0.0027 µM, the kcat came out at 0.000285 s⁻¹ and the Δ kcat is 190. Also, at FIXa [4], the Vmax entry was “(+++) ((+++)>2)”.
k-MeLeu-TCLASYCWLF [Compound 2]: the “Clotting time” value was 50.3 s in assay [1] (aPTT* with FIXa, 5 μM); 42.2 s in assay [1] (aPTT* with FIXa, 10 μM); 42.3 s in assay [1] (aPTT* with FIXa, 20 μM); 91.4 s in assay [1] (aPTT*, FIXa 1 nM); 49.6 s in [1] (aPTT*, FIXa 2 nM); 42.7 s in assay [1] (aPTT*, FIXa 4 nM). Also, the “Clotting time” value in [1] (aPTT*, FIXa 8 nM) was 37.1 s. For the same substance, the “Clotting time, sec” value is given as 51.1; sec in assay [1] (aPTT* with FIXa, 5 μM); 42.9; sec in assay [1] (aPTT* with FIXa, 10 μM); 42.4; sec in assay [1] (aPTT* with FIXa, 20 μM); 86.8; sec in assay [1] (aPTT*, FIXa 1 nM); 51.3; sec in assay [1] (aPTT*, FIXa 2 nM); 46.0; sec in [1] (aPTT*, FIXa 4 nM). For the same substance, the “Clotting time, sec” value in assay [1] (aPTT*, FIXa 8 nM) is on record as 34.4; sec. In addition, the Vmax entry at FIXa [4] was “(++++) ((++++)>3)”. In addition, the “Vmax (mOD/min min)” value at FIXa [4] (PL: No) is on record as 3.05 mOD/min min; at FIXa [4] (PL: Yes), 4.22 mOD/min min.

What is called Km is the concentration of substrate that gives half-maximal velocity. One may read the kcat as the maximal rate divided by the concentration of active sites.
